In patent US20100204113A1, “USE OF STRESSCOPIN-RELATED PEPTIDE AS A THERAPEUTIC AGENT” (priority 2007, published 2010):
No end group written: not given here.

System: drug-resistant Mycobacterium tuberculosis
Conditions: peptide 10 micrograms per ml, seven days

Q: With “HPGSRIVLSLDVPIGLLQILLEQARARAAREQATTNARILARV-NH2 [Stresscopin-related peptide]” as the substance, how does the “% inhibition” value read?
A: Its value is 0.0%.
